Test results published in PubChem BioAssay (NCI).
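Five compound concentrations were applied to cells in 96-well plates for 48 hours; endpoints were derived by simple linear interpolation of the resulting dose-response curve. GI50 = concentration required for 50% inhibition of growth. TGI: concentration producing complete growth inhibition.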

What was measured:
Assay in all cases: NCI anticancer screen, dose series, 48 h
[1] = system: IGROV1 ovarian
[2] = system: HOP-92 NSCLC
[3] = system: NCI/ADR-RES ovarian
[4] = system: A549 NSCLC
[5] = system: HCT-116 colon
[6] = system: OVCAR-5 ovarian
[7] = system: PC-3 prostate
[8] = system: SF-539 CNS
[9] = system: SK-MEL-28 melanoma
[10] = system: SK-OV-3 ovarian

Row | Compound | GI50 [1] [µM] | TGI [1] [µM] | GI50 [2] [µM] | TGI [2] [µM] | GI50 [3] [µM] | TGI [3] [µM] | GI50 [4] [µM] | TGI [4] [µM] | GI50 [5] [µM] | TGI [5] [µM] | GI50 [6] [µM] | TGI [6] [µM] | GI50 [7] [µM] | TGI [7] [µM] | GI50 [8] [µM] | TGI [8] [µM] | GI50 [9] [µM] | TGI [9] [µM] | GI50 [10] [µM] | TGI [10] [µM]
1 | CN(C)CCCn1c2c(c3cnccc3c1=O)C(=O)c1ccccc1-2 | 0.411 | 3.75 | 0.203 | 2.68 | 0.483 | 10.8 | 0.676 | 3.86 | 0.245 | 11.7 | 0.558 | 9.04 | 0.485 | 3.93 | 0.377 | 2.9 | 0.508 | 2.59 | 1.96 | 28.7
2 | N#CC(=S)Nc1cccc(Cl)c1 |  | 29.4 |  | > 100 |  | > 100 |  | > 100 |  | > 100 |  | > 100 |  | > 100 |  | 93.7 |  | > 100 |  | 87.9
3 | CCCCn1c2cc(OCc3cn(-c4ccc(Cl)cc4)nn3)ccc2c2ccnc(C)c21 | 9.02 | > 33.3 | 4.22 | 16.3 | 6.98 | 29.7 | 8 | > 33.3 | 5.11 | 13.2 | 6.55 | 21.5 | 7.85 | > 33.3 | 5.11 | 10.3 | 5.82 | 14 | 5.45 | 13.4
4 | Cc1ccc(C(CN(C)C)C(=O)c2ccccc2)cc1 (stereo not given) | 3.62 | 11.5 | 2.07 | 5.38 | 2.89 | 12.6 | 16.7 | 38 | 0.514 | 1.83 | 4.23 | 15.8 | 1.84 | 4.36 | 3.09 | 10.7 | 2.83 | 8.37 | 14.7 | 31.3
5 | CC1=C(/C=C/C(C)=C\C=C\C(C)=C\C(=O)Nc2ccc3c(c2)OCO3)C(C)(C)CCC1 | > 100 | > 100 | 35.8 | > 100 | 73 | > 100 | 84.8 | > 100 | 29.5 | > 100 | > 100 | > 100 | 41.2 | > 100 | 51.3 | > 100 | > 100 | > 100 | > 100 | > 100
6 | C=C1[C@@H](C)[C@H]2[C@H](Cc3ccccc3)NC(=O)[C@]23OC(=O)/C=C/[C@H](O)CCC[C@@H](C)C/C=C/[C@H]3[C@@H]1O |  | 78.9 |  | 4.23 |  | 91.1 |  | > 97 |  | > 100 |  | > 100 |  | > 100 |  | 43.8 |  | > 100 |  | > 100
